The values below come from patent US20250304567A1, “PYRROLIDIONE DERIVATIVES AS INHIBITORS OF NF KAPPA B INDUCING KINASE” (priority 2022, published 2025).

The target of experiment [1] is Recombinant Human NF-kappaB-Inducing Kinase (NIK/MAP3K14) (Homo sapiens, UniProt Q99558). Kind of experiment: Inhibition of auto-phosphorylation of recombinant human NIK/MAP3K14 activity (AlphaScreen). Type of experiment: biochemical. The note with it: 5 μM ATP, 1 nM NIK, average if tested more than once. Here is the method: Assay 1: Inhibition of Auto-Phosphorylation of Recombinant Human NF-kappaB-Inducing Kinase (NIK/MAP3K14) Activity (AlphaScreen™)
Recombinant Human NF-kappaB-Inducing Kinase (NIK/MAP3K14), sequence (Q99558 whole entry): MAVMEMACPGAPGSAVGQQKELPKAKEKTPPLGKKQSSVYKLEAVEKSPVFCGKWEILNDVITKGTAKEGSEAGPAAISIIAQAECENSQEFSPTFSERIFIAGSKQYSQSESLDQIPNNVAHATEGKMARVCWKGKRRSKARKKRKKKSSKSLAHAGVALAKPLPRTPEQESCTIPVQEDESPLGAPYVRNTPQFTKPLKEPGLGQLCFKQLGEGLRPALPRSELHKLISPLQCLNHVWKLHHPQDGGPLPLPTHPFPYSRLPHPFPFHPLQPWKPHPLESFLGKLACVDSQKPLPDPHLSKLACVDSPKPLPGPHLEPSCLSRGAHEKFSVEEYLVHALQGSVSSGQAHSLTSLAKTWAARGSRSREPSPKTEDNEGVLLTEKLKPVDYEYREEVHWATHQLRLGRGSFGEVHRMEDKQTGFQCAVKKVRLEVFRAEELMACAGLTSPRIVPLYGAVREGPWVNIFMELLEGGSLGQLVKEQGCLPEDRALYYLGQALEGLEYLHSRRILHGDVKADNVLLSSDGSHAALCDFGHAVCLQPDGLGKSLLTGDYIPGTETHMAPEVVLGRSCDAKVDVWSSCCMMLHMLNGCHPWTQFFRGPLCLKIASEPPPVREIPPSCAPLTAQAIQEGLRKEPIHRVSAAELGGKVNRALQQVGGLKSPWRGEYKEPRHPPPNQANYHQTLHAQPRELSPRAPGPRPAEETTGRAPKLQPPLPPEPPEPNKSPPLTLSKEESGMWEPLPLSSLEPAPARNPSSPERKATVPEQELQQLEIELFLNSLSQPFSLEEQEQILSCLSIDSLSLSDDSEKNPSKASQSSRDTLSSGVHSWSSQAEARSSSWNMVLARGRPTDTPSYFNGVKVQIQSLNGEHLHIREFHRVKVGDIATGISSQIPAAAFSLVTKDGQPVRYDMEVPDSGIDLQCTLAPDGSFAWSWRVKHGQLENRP
NIK/MAP3K14 auto-phosphorylation activity was measured using the AlphaScreen™ (αscreen) format (Perkin Elmer). All compounds tested were dissolved in dimethyl sulfoxide (DMSO) and further dilutions were made in assay buffer. The final DMSO concentration was 0.7% (v/v) in assays. The assay buffer was 50 mM Tris pH 7.5 containing 1 mM EGTA (ethylene glycol tetraacetic acid), 1 mM DTT (dithiothreitol), 0.1 mM Na3VO4, 5 mM MgCl2, and 0.01% Tween®20. The assays were carried out in 384 well Proxiplates (Perkin Elmer). The incubations consisted of the compound, 5 μM Adenosine-5′-triphosphate (ATP), and 1 nM NIK/MAP3K14. Incubations were initiated by the addition of GST-tagged NIK/MAP3K14 enzyme, carried out for 2 h at 25° C. and terminated by addition of stop buffer containing anti-phospho-IKK Ser176/180 antibody. Protein A Acceptor and Glutathione-Donor beads were added before reading using an EnVision Multilabel Plate Reader (Perkin Elmer). The signal obtained in the wells was normalized using high (full enzyme activity, 0.7% DMSO) and low controls (no enzyme activity, 0.7% DMSO, no ATP). IC50's were determined by fitting a sigmoidal curve to % inhibition of control versus Log10 compound concentration.
For orientation: In Alpha technology, singlet oxygen from a donor bead excites a nearby acceptor bead.

Experiment [2] has as its system p-IKKa levels in L363 (NIK translocated multiple myeloma) cells. As to the kind of experiment: Effect of compounds on p-IKKa levels in L363 (NIK translocated multiple myeloma) cells (AlphaLISA SureFire Ultra p-IKKa Ser176/180). The class given is cell-based, human. To be noted: Homo sapiens, L-363, p-IKKa levels in L363 cells; average if tested more than once; read-out: Assay 2 IC50. Here is the method: Assay 2: Effect of Compounds on p-IKKa Levels in L363 (NIK Translocated Multiple Myeloma) Cells
All compounds tested were dissolved and serially diluted in DMSO, 1:3 dilution for 11 points in an Echo compatible plate. 100% DMSO was added to columns 12 and 24 of the plate to serve as high and low signal controls. This compound plate was used to spot 20 nL of compound or DMSO into a Greiner 384 well TC plate (781080). The final DMSO concentration was 0.3% (v/v) in cell assays. Human L363 cells (ATCC) were cultured in RPM11640 medium supplemented with GlutaMax, non-essential amino acids, sodium pyruvate and 10% fetal bovine serum. Cells were routinely maintained at densities of 0.2×10^6 cells per ml-2×10^6 cells per mL at 37° C. in a humidified 5% CO2 atmosphere incubator. Cells were passaged twice a week splitting back to obtain the low density. The day before the assay, cells were washed twice in HBSS (Hank's Balanced Salt Solution), resuspended in Dulbecco's Modified Eagle Medium (DMEM)+0.5% IgG and protease free BSA (Jackson Immuno Research Laboratories), +/−250 ng/ml recombinant human B-cell activating factor (BAFF/BLyS/TNFSF13B) and incubated overnight at 37° C. in a humidified 5% CO2 atmosphere (bulk stimulation with or without BAFF). The next day, the cell concentration was adjusted to 1×10^7 cells/ml in DMEM+/−250 ng/ml BAFF+/−10 μM MG132 and plated at 10 μl/well into compound or DMSO spotted 384 well TC plates. Seeded cells were incubated at 37° C. in a humidified 5% CO2 atmosphere for 6 h. After 6 h, the plates were removed from the incubator and cell lysis was achieved by the addition of 2.5 μl 5× lysis buffer containing protease and phosphatase inhibitors, followed by shaking on a plate shaker at room temperature for 15 min. At the end of this incubation, lysed cells were sequentially treated and incubated with acceptor and donor bead mixes according to the manufacturer's protocol for a 1 plate/2-incubation suspension cell assay (AlphaLISA SureFire Ultra p-IKKa (Ser 176/180) Assay Kit (Perkin Elmer). Plates were read using an EnVision Multilabel Plate Reader (Perkin Elmer). Within an experiment, a concentration response curve for each compound was run in duplicate. The signal obtained in the test wells was normalized using high signal (BAFF stimulated cells, DMSO, MG132) and low signal (unstimulated cells, DMSO) controls. To determine the IC50, a sigmoidal curve was fitted to the plot of % inhibition versus Log10 compound concentration.

The IC50 is the concentration that inhibits the measured activity by half. For `CN1CC[C@@](O)(c2cncc(-c3ccn(-c4ccnc(Nc5cn(CC(F)F)nc5OC5CC5)n4)n3)c2)C1=O` (single isomer, unassigned) [Example 145, (R)-3-(5-(1-(2-((3-cyclopropoxy-1-(2,2-difluoroethyl)-1H-pyrazol-4-yl)amino)pyrimidin-4-yl)-1H-pyrazol-3-yl)pyridin-3-yl)-3-hydroxy-1-methylpyrrolidin-2-one or (S)-3-(5-(1-(2-((3-cyclopropoxy-1-(2,2-difluoroethyl)-1H-pyrazol-4-yl)amino)pyrimidin-4-yl)-1H-pyrazol-3-yl)pyridin-3-yl)-3-hydroxy-1-methylpyrrolidin-2-one], the IC50 in experiment [1] and in experiment [2] was below 100 nM throughout.

Turning to `CN1CC[C@@](O)(c2cncc(-c3ccn(-c4ccnc(Nc5cnn6ccccc56)n4)n3)c2)C1=O` (single isomer, unassigned) [Example 146, (R)-3-hydroxy-1-methyl-3-(5-(1-(2-(pyrazolo[1,5-a]pyridin-3-ylamino)pyrimidin-4-yl)-1H-pyrazol-3-yl)pyridin-3-yl)pyrrolidin-2-one or (S)-3-hydroxy-1-methyl-3-(5-(1-(2-(pyrazolo[1,5-a]pyridin-3-ylamino)pyrimidin-4-yl)-1H-pyrazol-3-yl)pyridin-3-yl)pyrrolidin-2-one], the IC50 in experiment [1] and in experiment [2] was below 100 nM each time.

In the case of `CN1CC[C@@](O)(c2cncc(-c3ccn(-c4ccnc(Nc5ccn(C)n5)n4)n3)c2)C1=O` (single isomer, unassigned) [Example 147, (R)-3-hydroxy-1-methyl-3-(5-(1-(2-((1-methyl-1H-pyrazol-3-yl)amino)pyrimidin-4-yl)-1H-pyrazol-3-yl)pyridin-3-yl)pyrrolidin-2-one or (S)-3-hydroxy-1-methyl-3-(5-(1-(2-((1-methyl-1H-pyrazol-3-yl)amino)pyrimidin-4-yl)-1H-pyrazol-3-yl)pyridin-3-yl)pyrrolidin-2-one], the IC50 in experiment [1] was below 100 nM; in experiment [2], 100 to 500 nM.

For the compound `CN1CC[C@@](O)(c2cncc(-c3ccn(-c4ccnc(Nc5cnn6cccnc56)n4)n3)c2)C1=O` (single isomer, unassigned) [Example 148, (R)-3-hydroxy-1-methyl-3-(5-(1-(2-(pyrazolo[1,5-a]pyrimidin-3-ylamino)pyrimidin-4-yl)-1H-pyrazol-3-yl)pyridin-3-yl)pyrrolidin-2-one or (S)-3-hydroxy-1-methyl-3-(5-(1-(2-(pyrazolo[1,5-a]pyrimidin-3-ylamino)pyrimidin-4-yl)-1H-pyrazol-3-yl)pyridin-3-yl)pyrrolidin-2-one], the IC50 in experiment [1] was below 100 nM; in experiment [2], above 501 nM.

On to `CN1CC[C@@](O)(c2ccnc(-c3ccn(-c4ccnc(Nc5cnn6cccnc56)n4)n3)c2)C1=O` (single isomer, unassigned) [Example 149, (R)-3-hydroxy-1-methyl-3-(2-(1-(2-(pyrazolo[1,5-a]pyrimidin-3-ylamino)pyrimidin-4-yl)-1H-pyrazol-3-yl)pyridin-4-yl)pyrrolidin-2-one or (S)-3-hydroxy-1-methyl-3-(2-(1-(2-(pyrazolo[1,5-a]pyrimidin-3-ylamino)pyrimidin-4-yl)-1H-pyrazol-3-yl)pyridin-4-yl)pyrrolidin-2-one], for which the IC50 was below 100 nM in experiment [1] and above 501 nM in experiment [2].

Consider `COc1nn(CC(F)F)cc1Nc1nccc(-n2ccc(-c3cncc([C@]4(O)CCN(C)C4=O)c3)n2)n1` (single isomer, unassigned) [Example 150, (R)-3-(5-(1-(2-((1-(2,2-difluoroethyl)-3-methoxy-1H-pyrazol-4-yl)amino)pyrimidin-4-yl)-1H-pyrazol-3-yl)pyridin-3-yl)-3-hydroxy-1-methylpyrrolidin-2-one or (S)-3-(5-(1-(2-((1-(2,2-difluoroethyl)-3-methoxy-1H-pyrazol-4-yl)amino)pyrimidin-4-yl)-1H-pyrazol-3-yl)pyridin-3-yl)-3-hydroxy-1-methylpyrrolidin-2-one], for which the IC50 in experiment [1] and in experiment [2] was below 100 nM in each case.
